Columns and labels:
lambsquarters = experiment: Test Example 5: herbicidal effect by foliage application, plastic box (Table 20, symbol O); type: in vivo, lambsquarters (Chenopodium album); details: foliage application
Outline: (§1)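 Plants sown in sterilized diluvial soil and grown 14 days in a greenhouse at 25° C to 30° C, then sprayed on the foliage with the compound's emulsion diluted in water to a predetermined herbicide amount. Injury to weeds and crops scored three weeks after application on a visual rating scale.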

barnyard grass [1] = experiment: Test Example 3: herbicidal effect by foliage application, Wagner pot (Table 18, symbol H); type: in vivo, barnyard grass (Echinochloa crus-galli); details: for herbicidal effect on H (barnyard grass), rating 0-5: 320 g/ha
Outline: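 Plants were sown in alluvial soil held under 0.1–0.5 cm standing water and grown 14 days in a greenhouse at 25–30 °C. An emulsifiable formulation, water-diluted to the set dose, was then sprayed onto the foliage, and effects were scored three weeks later using previously defined criteria.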

windgrass = experiment: Test Example 5: herbicidal effect by foliage application, plastic box (Table 20, symbol L); type: in vivo, windgrass (Apera spica-venti); details: foliage application
Outline: as §1

oval-leafed pondweed [2] = experiment: Test Example 1: herbicidal activity, application before weed generation under submerged conditions (Table 16, symbol C); type: in vivo, oval-leafed pondweed (Monochoria vaginalis); details: 320 g/ha applied herbicide
Outline: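 Emulsion formulation, water-diluted to set dose, was put onto the flooded surface (4 cm depth, alluvial soil) the same day weeds were sown and 2.5-leaf rice transplanted. After 3 weeks at 25-30 °C under glass, each species was rated 0 (≤5% kill) to 5 (≥90% kill).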

redroot pigweed [3] = experiment: Test Example 5: herbicidal effect by foliage application, plastic box (Table 20, symbol N); type: in vivo, redroot pigweed (Amaranthus retroflexus); details: foliage application
Outline: as §1

chickweed = experiment: Test Example 5: herbicidal effect by foliage application, plastic box (Table 20, symbol P); type: in vivo, common chickweed (Stellaria media); details: foliage application
Outline: as §1

barnyard grass [4] = experiment: Test Example 4: herbicidal effect by soil treatment (Table 19, symbol H); type: in vivo, barnyard grass (Echinochloa crus-galli)
Outline: (§2)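 Three weeks of greenhouse growth at 25° C. to 30° C. followed a uniform surface spray of water-diluted emulsion at a predetermined herbicide amount. Seeds had been sown beforehand under about 1.5 cm of sterilized diluvial soil. Grading followed criteria set out in an earlier test.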

oval-leafed pondweed [5] = experiment: Test Example 2: herbicidal activity, application during weed generation under submerged conditions (Table 17, symbol C); type: in vivo, oval-leafed pondweed (Monochoria vaginalis); details: AAH 320 g/ha; application during weed generation, submerged conditions
Outline: (§3)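 Steps: fill Wagner pots with alluvial soil; add water to give 4 cm depth; sow the species mixed; grow under glass at 25–30° C.; at 1–2 leaves apply water-diluted emulsion formulation to the water surface at a fixed herbicide amount; score after 3 weeks.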

green foxtail = experiment: Test Example 4: herbicidal effect by soil treatment (Table 19, symbol G); type: in vivo, green foxtail (Setaria viridis)
Outline: as §2

blackgrass = experiment: Test Example 4: herbicidal effect by soil treatment (Table 19, symbol J); type: in vivo, blackgrass (Alopecurus myosuroides)
Outline: as §2

Japanese bulrush = experiment: Test Example 2: herbicidal activity, application during weed generation under submerged conditions (Table 17, symbol B); type: in vivo, Japanese bulrush (Schoenoplectus juncoides); details: AAH 320 g/ha; application during weed generation, submerged conditions
Outline: as §3

persian speedwell [6] = experiment: Test Example 4: herbicidal effect by soil treatment (Table 19, symbol R); type: in vivo, Persian speedwell (Veronica persica)
Outline: as §2

velvetleaf = experiment: Test Example 4: herbicidal effect by soil treatment (Table 19, symbol M); type: in vivo, velvetleaf (Abutilon theophrasti)
Outline: as §2

southern crabgrass = experiment: Test Example 5: herbicidal effect by foliage application, plastic box (Table 20, symbol F); type: in vivo, southern crabgrass (Digitaria ciliaris); details: foliage application
Outline: as §1

redroot pigweed [7] = experiment: Test Example 4: herbicidal effect by soil treatment (Table 19, symbol N); type: in vivo, redroot pigweed (Amaranthus retroflexus)
Outline: as §2

persian speedwell [8] = experiment: Test Example 5: herbicidal effect by foliage application, plastic box (Table 20, symbol R); type: in vivo, Persian speedwell (Veronica persica); details: foliage application
Outline: as §1

[9] = 320 g/ha, three weeks after application
[10] = amount of applied herbicide 320 g/ha
[11] = AAH 320 g/ha, three weeks after application
[12] = 320 g/ha, 3 weeks after application
[13] = 320 g/ha, evaluated three weeks after application

Compound	herbicidal effect grade, O: lambsquarters (lambsquarters; [9])	herbicidal effect on H (barnyard grass), rating 0-5 (barnyard grass [1])	herbicidal effect grade, L: windgrass (windgrass; [9])	Herbicidal effect on C: oval-leafed pondweed (grade 0-5) (oval-leafed pondweed [2])	herbicidal effect grade, N: redroot pigweed (redroot pigweed [3]; [9])	herbicidal effect grade, P: chickweed (chickweed; [9])	herbicidal effect rating, H: barnyard grass (barnyard grass [4]; [10])	herbicidal effect rating, C: oval-leafed pondweed (oval-leafed pondweed [5])	herbicidal effect rating, G: green foxtail (green foxtail; [10])	herbicidal effect rating, J: blackgrass (blackgrass; [10])	herbicidal effect rating, B: Japanese bulrush (Japanese bulrush)	herbicidal effect rating, R: persian speedwell (persian speedwell [6]; [10])	herbicidal effect rating, M: velvetleaf (velvetleaf; [10])	herbicidal effect grade, F: southern crabgrass (southern crabgrass; [9])	herbicidal effect rating, N: redroot pigweed (redroot pigweed [7]; [10])	herbicidal effect grade, R: persian speedwell (persian speedwell [8]; [9])	also measured
CCCC(=O)Oc1c(C)nn(C)c(=O)c1-c1c(-c2ccc(OCC)cc2)sc2ccccc12 [1-014]	2 (Herbicidal rate of 20% or more and less than 40%)	4 (Herbicidal rate of 70% or more and less than 90%)	0 (Herbicidal rate of 5% or less (almost no effect))	5 (Herbicidal rate of 90% or more (almost completely withered))	0 (Herbicidal rate of 5% or less (almost no effect))	5 (Herbicidal rate of 90% or more (almost completely withered))	2 (Herbicidal rate of 20% or more and less than 40%)	3 (Herbicidal rate of 40% or more and less than 70%)	1 (Herbicidal rate of 5% or more and less than 20%)	0 (Herbicidal rate of 5% or less (almost no effect))	3 (Herbicidal rate of 40% or more and less than 70%)	5 (Herbicidal rate of 90% or more (almost completely withered))	0 (Herbicidal rate of 5% or less (almost no effect))	0 (Herbicidal rate of 5% or less (almost no effect))	0 (Herbicidal rate of 5% or less (almost no effect))	5 (Herbicidal rate of 90% or more (almost completely withered))	–
CCCOc1ccccc1-c1sc2ccccc2c1-c1c(O)c(C)nn(C)c1=O [1-015]	0 (Herbicidal rate of 5% or less (almost no effect))	5 (Herbicidal rate of 90% or more (almost completely withered))	5 (Herbicidal rate of 90% or more (almost completely withered))	3 (Herbicidal rate of 40% or more and less than 70%)	3 (Herbicidal rate of 40% or more and less than 70%)	5 (Herbicidal rate of 90% or more (almost completely withered))	4 (Herbicidal rate of 70% or more and less than 90%)	2 (Herbicidal rate of 20% or more and less than 40%)	4 (Herbicidal rate of 70% or more and less than 90%)	4 (Herbicidal rate of 70% or more and less than 90%)	1 (Herbicidal rate of 5% or more and less than 20%)	4 (Herbicidal rate of 70% or more and less than 90%)	0 (Herbicidal rate of 5% or less (almost no effect))	3 (Herbicidal rate of 40% or more and less than 70%)	0 (Herbicidal rate of 5% or less (almost no effect))	5 (Herbicidal rate of 90% or more (almost completely withered))	–
Cc1nn(C)c(=O)c(-c2c(-c3cnc4ccccc4c3)sc3ccccc23)c1O [1-108]	–	0 (Herbicidal rate of 5% or less (almost no effect))	–	0 (Herbicidal rate of 5% or less (almost no effect))	–	–	0 (Herbicidal rate of 5% or less (almost no effect))	0 (Herbicidal rate of 5% or less (almost no effect))	0 (Herbicidal rate of 5% or less (almost no effect))	0 (Herbicidal rate of 5% or less (almost no effect))	2 (Herbicidal rate of 20% or more and less than 40%)	0 (Herbicidal rate of 5% or less (almost no effect))	–	–	0 (Herbicidal rate of 5% or less (almost no effect))	–	O: lambsquarters, herbicidal effect (lambsquarters; [11]): 2 (Herbicidal rate of 20% or more and less than 40%); L: windgrass, herbicidal effect (windgrass; [11]): 0 (Herbicidal rate of 5% or less (almost no effect)); N: redroot pigweed, herbicidal effect (redroot pigweed [3]; [11]): 0 (Herbicidal rate of 5% or less (almost no effect)); P: chickweed, herbicidal effect (chickweed; [11]): 2 (Herbicidal rate of 20% or more and less than 40%); F: southern crabgrass, herbicidal effect (southern crabgrass; [11]): 0 (Herbicidal rate of 5% or less (almost no effect)); R: persian speedwell, herbicidal effect (persian speedwell [8]; [11]): 0 (Herbicidal rate of 5% or less (almost no effect))
Cc1nn(C)c(=O)c(-c2c(-c3ccc(OCCF)cc3)sc3ccc(F)cc23)c1O [2-047]	–	5 (Herbicidal rate of 90% or more (almost completely withered))	–	2 (Herbicidal rate of 20% or more and less than 40%)	–	–	–	2 (Herbicidal rate of 20% or more and less than 40%)	–	–	3 (Herbicidal rate of 40% or more and less than 70%)	–	–	–	–	–	effect on lambsquarters (O) (lambsquarters; [12]): 4 (Herbicidal rate of 70% or more and less than 90%); effect on windgrass (L) (windgrass; [12]): 4 (Herbicidal rate of 70% or more and less than 90%); herbicidal effect rating, H: barnyard grass (barnyard grass [4]; 320 g/ha): 5 (Herbicidal rate of 90% or more (almost completely withered)); herbicidal effect rating, G: green foxtail (green foxtail; 320 g/ha): 5 (Herbicidal rate of 90% or more (almost completely withered)); herbicidal effect rating, J: blackgrass (blackgrass; 320 g/ha): 0 (Herbicidal rate of 5% or less (almost no effect)); herbicidal effect rating, R: persian speedwell (persian speedwell [6]; 320 g/ha): 5 (Herbicidal rate of 90% or more (almost completely withered)); herbicidal effect rating, M: velvetleaf (velvetleaf; 320 g/ha): 5 (Herbicidal rate of 90% or more (almost completely withered)); effect on southern crabgrass (F) (southern crabgrass; [12]): 5 (Herbicidal rate of 90% or more (almost completely withered)); herbicidal effect rating, N: redroot pigweed (redroot pigweed [7]; 320 g/ha): 5 (Herbicidal rate of 90% or more (almost completely withered)); effect on persian speedwell (R) (persian speedwell [8]; [12]): 5 (Herbicidal rate of 90% or more (almost completely withered))
CCCC(=O)Oc1c(C)nn(C)c(=O)c1-c1c(-c2ccc(SCC)cc2)sc2ccc(F)cc12 [2-245]	–	–	–	3 (Herbicidal rate of 40% or more and less than 70%)	–	–	–	4 (Herbicidal rate of 70% or more and less than 90%)	–	–	3 (Herbicidal rate of 40% or more and less than 70%)	–	–	–	–	–	herbicidal effect on O: lambsquarters (criteria 0-5) (lambsquarters; [13]): 5 (Herbicidal rate of 90% or more (almost completely withered)); herbicidal effect on H: barnyard grass (barnyard grass [1]; [10]): 5 (Herbicidal rate of 90% or more (almost completely withered)); herbicidal effect on N: redroot pigweed (criteria 0-5) (redroot pigweed [3]; [13]): 5 (Herbicidal rate of 90% or more (almost completely withered)); herbicidal effect on P: chickweed (criteria 0-5) (chickweed; [13]): 5 (Herbicidal rate of 90% or more (almost completely withered)); herbicidal effect on H: barnyard grass (barnyard grass [4]; [10]): 5 (Herbicidal rate of 90% or more (almost completely withered)); herbicidal effect on G: green foxtail (green foxtail; [10]): 5 (Herbicidal rate of 90% or more (almost completely withered)); herbicidal effect on J: blackgrass (blackgrass; [10]): 3 (Herbicidal rate of 40% or more and less than 70%); herbicidal effect on R: persian speedwell (persian speedwell [6]; [10]): 5 (Herbicidal rate of 90% or more (almost completely withered)); herbicidal effect on M: velvetleaf (velvetleaf; [10]): 2 (Herbicidal rate of 20% or more and less than 40%); herbicidal effect on F: southern crabgrass (criteria 0-5) (southern crabgrass; [13]): 5 (Herbicidal rate of 90% or more (almost completely withered)); herbicidal effect on N: redroot pigweed (redroot pigweed [7]; [10]): 5 (Herbicidal rate of 90% or more (almost completely withered)); herbicidal effect on R: persian speedwell (criteria 0-5) (persian speedwell [8]; [13]): 5 (Herbicidal rate of 90% or more (almost completely withered))

Source: patent US20230085307A1, “PYRIDAZINONE COMPOUND AND HERBICIDE” (NISSAN CHEMICAL CORPORATION, priority 2019, published 2023)
